Results published in patent US8865641B2, “Methods of treatment of fatty liver disease by pharmacological activation of cholinergic pathways” (priority 2011, dated 2014).

Tests used:
Type in all cases: in vivo, C57BL/6J mice
[1] = system: mice with high-fat diet-induced obesity; experiment: Fatty liver manifestations (plasma ALT, liver weight, hepatic steatosis on H&E liver sections) in high-fat diet-fed mice; conditions: 4 mg/kg i.p. once daily for 4 weeks
Description: (§1) Experiments with male C57BL/6J mice (5-6 month old, Jackson Lab) were performed in accordance with the NIH Guidelines under protocols approved by the IACUC Committee of the Feinstein Institute for Medical Research, North Shore-LIJ Health System, Manhasset, N.Y., USA.
(§2) C57BL/6J mice were initially fed a regular chow for 10 days and then switched to a high-fat diet (D12492, 60% kcal from fat, shown in FIG. 2) or its corresponding low-fat control diet (D12450B, 10% kcal from fat, shown in FIG. 1) (Research Diets, New Brunswick, N.J.) for 12 weeks. After the first 8 weeks mice on the high-fat diet were divided into 2 groups and treated with saline (i.p. once daily) or galantamine (Galanthamine Hydrobromide, EMD Biosciences, Inc., La Jolla, Calif., USA) (4 mg/kg, i.p., once daily) for the remaining 4 weeks of the study. In parallel, mice on the low-fat (control) diet were treated with saline. Body weight and food intake were determined on a weekly basis by trained personnel of the Center for Comparative Physiology at the Feinstein Institute, who were blinded to treatment groups. At the end of the experimental time period mice were euthanized and abdominal adiposity, liver weight, cytokine and adipokine levels, metabolic profile, insulin resistance, and liver histology were evaluated. In a separate experiment, groups of mice were fed and treated and body weights and food intake recorded as described above. […]
(§3) Plasma samples were sent to Millipore and plasma insulin, leptin, MCP-1, PAI-1, resistin, TNF and IL-6 levels were determined by using the Millipore's MILLIPLEX map mouse adipokine panel assay with the following detection sensitivity limits: leptin 16.71 pg/mL; resistin 1.79 pg/mL; IL-6 1.89 pg/mL; TNF 4.39 pg/mL; MCP-1 14.4 pg/mL; PAI-1 16.4 pg/mL, insulin 42.2 pg/mL. Plasma samples were sent to IDEXX and plasma levels of total cholesterol and ALT were determined by using IDEXX's Olympus analyzers and spectrophotometric determination. Plasma adiponectin was measured by using the mouse adiponectin/Acrp30 immunoassay (R&D Systems) according to the manufacturer's recommendations.
Formalin fixed liver tissue was imbedded in paraffin, sliced and then liver tissue sections were subjected to hematoxylin and eosin (H&E) staining and microscopic slides prepared. Hepatic steatosis was determined by microscopic evaluation of H&E stained liver sections for lipid accumulation by using Zeiss apotome and semi-quantified by applying a previously implemented grading criteria: no fat accumulation (grade 0); less than 33% fat-containing hepatocytes (grade 1); less than 66% fat-containing hepatocytes (grade 2); more than 66% fat-containing hepatocytes (grade 3).

[2] = system: mice with high-fat diet-induced obesity; experiment: Fasting blood glucose, plasma insulin, HOMA-IR and plasma total cholesterol in high-fat diet-fed mice; conditions: 4 mg/kg i.p. once daily for 4 weeks, HFD-G vs HFD-S mice
Description: (§4) C57BL/6J mice were initially fed a regular chow for 10 days and then switched to a high-fat diet (D12492, 60% kcal from fat, shown in FIG. 2) or its corresponding low-fat control diet (D12450B, 10% kcal from fat, shown in FIG. 1) (Research Diets, New Brunswick, N.J.) for 12 weeks. After the first 8 weeks mice on the high-fat diet were divided into 2 groups and treated with saline (i.p. once daily) or galantamine (Galanthamine Hydrobromide, EMD Biosciences, Inc., La Jolla, Calif., USA) (4 mg/kg, i.p., once daily) for the remaining 4 weeks of the study. In parallel, mice on the low-fat (control) diet were treated with saline. Body weight and food intake were determined on a weekly basis by trained personnel of the Center for Comparative Physiology at the Feinstein Institute, who were blinded to treatment groups. At the end of the experimental time period mice were euthanized and abdominal adiposity, liver weight, cytokine and adipokine levels, metabolic profile, insulin resistance, and liver histology were evaluated. In a separate experiment, groups of mice were fed and treated and body weights and food intake recorded as described above. At the end of the experimental time period mice were subjected to the insulin sensitivity test or the glucose tolerance test as described below.
Blood glucose during the study was measured by nicking the tails and using the Contour blood glucose meter (Bayer, Elkhart, Ind.) with Contour blood glucose test strips according to the manufacturer's recommendations. After blood collection the cuts were compressed with sterile gauze until bleeding termination.
as §3
Insulin resistance was evaluated by using glucose and insulin level values and by applying the homeostatic model assessment-insulin resistance (HOMA-IR) formula, presented in Mlinar et al. (2007) Molecular mechanisms of insulin resistance and associated diseases. Clin Chim Acta 375:20-35, the relevant teachings of which is incorporated herein by reference. Specifically, the expression used to evaluate insulin resistance is: HOMA index=insulin (mU/L)×[glucose (mmol/L)/22.5] […]

[3] = system: mice with high-fat diet-induced obesity; experiment: Glucose tolerance test (GTT) in high-fat diet-fed mice; conditions: HFD-G as compared to HFD-S mice
Description: (§5) Separate groups of mice were fed and treated and body weights and food intake recorded as described above (in Experimental design). At the end of the 12 week period, mice from the three experimental groups were used in the insulin sensitivity and glucose tolerance tests. In the insulin sensitivity test, after an overnight (18 hours) fast, mice (n=10 per group) were weighed and administered i.p. with insulin (Humulin R, Lilly, 0.5 units/kg). In the glucose tolerance test, after an overnight (21 hours) fast, mice (n=10 per group) were weighed and injected i.p. with glucose (10% D glucose solution, Sigma, 1 g/kg). Glucose levels were determined at 0, 15, 30, 60, and 120 min after insulin or glucose administration in blood from the tail vein by using the Contour blood glucose meter (Bayer, Elkhart, Ind.) with Contour blood glucose test strips.

[4] = system: mice with high-fat diet-induced obesity; experiment: Body weight, food intake and abdominal adiposity in high-fat diet-fed mice; conditions: for body weight: 4 mg/kg i.p. once daily, FIG. 3A
Description: as §1, §4
(§6) After an overnight fast and following body weight and blood glucose determination mice were euthanized by CO2 asphyxiation. Heparinized blood was obtained by cardiac puncture and centrifuged within 30 min at 5,000 rpm for 10 min. Visceral adipose tissues and liver were harvested, rinsed with saline, and weighed. One piece of liver (the biggest lobe) was fixed in formalin for further H&E staining. Plasma and visceral fats (were frozen on dry ice) were transferred at −20° C. prior to further manipulations.

[5] = system: mice with high-fat diet-induced obesity; experiment: Separate experiment: body weight and food intake in high-fat diet-fed mice before IST and GTT; conditions: 4 mg/kg i.p. once daily for 4 weeks
Description: as §2
Separate groups of mice were fed and treated and body weights and food intake recorded as described above (in Experimental design). […]

[6] = system: mice with high-fat diet-induced obesity; experiment: Insulin sensitivity test (IST) in high-fat diet-fed mice
Description: as §5

[7] = system: mice with high-fat diet-induced obesity; experiment: Plasma cytokine/adipokine levels in high-fat diet-fed mice (MILLIPLEX mouse adipokine panel; adiponectin immunoassay); conditions: 4 mg/kg i.p. once daily for 4 weeks
Description: as §4, §6, §3

[8] = 4 mg/kg i.p. once daily for 4 weeks, HFD-G group, Table 1 in FIG. 4

For `COc1ccc2c3c1O[C@H]1C[C@@H](O)C=C[C@@]31CCN(C)C2` [galantamine], the “hepatocyte fat accumulation (steatosis), microscopic observations” value ([1]; HFD-G mice, H&E liver sections, FIG. 9) was “decreased lipid accumulation”, the liver weight ([1]; HFD-G vs HFD-S mice, FIG. 7B) was “significant liver weight decrease” and the “plasma alanine aminotransferase (ALT) levels” value ([1]; HFD-G vs HFD-S mice, end of 12 week study, FIG. 7A) was “significantly decreased”. For the same compound, the “lipid accumulation in livers, semi-quantitative analysis” value ([1]; HFD-G vs HFD-S mice, steatosis grade 0-3, FIG. 10) was “significantly reduced”, the “fasting blood glucose levels” value ([2]; FIG. 6A) was “significantly reduced” and the plasma insulin levels ([2]; FIG. 6B) was “significantly reduced”. The “plasma total cholesterol levels” value ([2]; FIG. 6D) was “significantly decreased”, the “insulin resistance (HOMA-IR)” value ([2]; calculated from glucose and insulin, FIG. 6C) was “reversed this insulin resistance” and the “area under the curve of the GTT data” value ([3]; FIG. 13B) was “significantly lower”. For the same compound, the “blood glucose levels in GTT” value ([3]; glucose 1 g/kg i.p. after overnight fast, FIG. 13A) was “suppressed blood glucose levels”, the “mesenteric adipose tissue weight” value [4, 8] was “significantly reduced” and the “retroperitoneal/perirenal adipose tissue weight” value [4, 8] was “significantly reduced”. For the same compound, the food intake ([4]; 4 mg/kg i.p. once daily for 4 weeks, HFD-G vs HFD-S group during treatment, FIG. 3B) was “additional suppression of food intake”, the body weight ([4]; HFD-G mice at week 9 as compared to week 8, then sustained) was “lower after the first week of treatment” and the body weight ([4]; HFD-G vs HFD-S mice at weeks 11 and 12) was “lower than the weight of HFD-S mice”. The body weight ([5]; HFD-G mice, while HFD-S continued to increase, FIG. 11A) was “decreased”, the food intake ([5]; HFD-G vs HFD-S group, FIG. 11B) was “significantly lower” and the “blood glucose levels in IST at 15 min and 30 min” value ([6]; HFD-G as compared to HFD-S mice, insulin 0.5 units/kg i.p. after overnight fast) was “significantly lower”. The “blood glucose levels in IST at 120 min” value ([6]; HFD-G as compared to LFD-S mice, insulin 0.5 units/kg i.p. after overnight fast) was “significantly lower”, the “time of lowest blood glucose levels in IST” value ([6]; HFD-G mice after insulin 0.5 units/kg i.p., unchanged at 60 min, increased at 120 min, FIG. 12) was 30 min and the “plasma TNF levels” value ([7]; HFD-G group, no value above the assay sensitivity limit) was less than 4.39 pg/mL. The “plasma MCP-1 levels” value ([7]; HFD-G mice, FIG. 5C) was “significantly reduced”, the “plasma IL-6 levels” value ([7]; HFD-G vs HFD-S mice, FIG. 5A) was “significantly reduced” and the plasma leptin levels ([7]; HFD-G vs HFD-S mice, FIG. 5B) was “significantly reduced”. The plasma resistin levels ([7]; HFD-G vs HFD-S mice, FIG. 5D) was “significantly lowered”, the plasma adiponectin levels ([7]; HFD-G vs HFD-S mice, FIG. 5F) was “a certain increase” and the “plasma plasminogen activator inhibitor-1 (PAI-1) levels” value ([7]; HFD-S higher than LFD-S and HFD-G mice, FIG. 5E) was “none of these differences were statistically significant”.
